Results as given in ChEMBL document CHEMBL5528035, “Design, Synthesis, and Biological Evaluation for First GPX4 and CDK Dual Inhibitors” (J Med Chem, 2024).

Legend:
[1] = target: CDK2/Cyclin A2 (Homo sapiens) (UniProt P24941+P20248); assay: Inhibition of CDK2/CyclinA2 (unknown origin) at 100 nM preincubated for 15 mins followed by substrate and ATP addition incubated for 10 mins by ADP-glo luminescent assay relative to control; type: protein-complex assay; conditions: time 25.0 min
[2] = target: CDK6/cyclin D3 (Homo sapiens) (UniProt P30281+Q00534); assay: Inhibition of CDK6/CyclinD3 (unknown origin) at 100 nM preincubated for 15 mins followed by substrate and ATP addition incubated for 10 mins by ADP-glo luminescent assay relative to control; type: protein-complex assay; conditions: time 25.0 min
MDA-MB-231 [3] = assay: cells; conditions: Homo sapiens, MDA-MB-231, 48 h
Description: Antiproliferative activity against human MDA-MB-231 cells assessed as inhibition of cell growth incubated for 48 hrs by CCK-8 assay

HCT-116 = assay: cells; conditions: Homo sapiens, HCT-116, 48 h
Description: Antiproliferative activity against human HCT-116 cells assessed as inhibition of cell growth incubated for 48 hrs by CCK-8 assay

A549 = assay: cells; conditions: Homo sapiens, A549, 48 h
Description: Antiproliferative activity against human A549 cells assessed as inhibition of cell growth incubated for 48 hrs by CCK-8 assay

HepG2 = assay: cells; conditions: Homo sapiens, HepG2, 48 h
Description: Antiproliferative activity against human HepG2 cells assessed as inhibition of cell growth incubated for 48 hrs by CCK-8 assay

[4] = Half life in human liver microsomes in presence of NADPH incubated for 5 to 45 mins by LC/MS analysis; type: ADME, Microsome; conditions: time 5-45 min
[5] = Intrinsic clearance in human liver microsomes in presence of NADPH incubated for 5 to 45 mins by LC/MS analysis; type: ADME, Microsome; conditions: time 5-45 min, read-out: CLH
[6] = Half life in Sprague-Dawley rat at 10 mg/kg,iv administration measured upto 24 hrs by LC-MS/MS analysis; type: ADME, organism-based; conditions: in vivo
[7] = Tmax in Sprague-Dawley rat at 10 mg/kg,iv administration measured upto 24 hrs by LC-MS/MS analysis; type: ADME, organism-based; conditions: in vivo
[8] = Cmax in Sprague-Dawley rat at 10 mg/kg,iv administration measured upto 24 hrs by LC-MS/MS analysis; type: ADME, organism-based; conditions: in vivo
[9] = AUC (0 to t) in Sprague-Dawley rat at 10 mg/kg,iv administration measured upto 24 hrs by LC-MS/MS analysis; type: ADME, organism-based; conditions: in vivo
[10] = MRT (0 to t) in Sprague-Dawley rat at 10 mg/kg,iv administration measured upto 24 hrs by LC-MS/MS analysis; type: ADME, organism-based; conditions: in vivo
[11] = Clearance in Sprague-Dawley rat at 10 mg/kg,iv administration measured upto 24 hrs by LC-MS/MS analysis; type: ADME, organism-based; conditions: in vivo
MDA-MB-231 [12] = assay: Antitumor activity against human MDA-MB-231 cells xenografted in BALB/c mouse assessed as tumor growth inhibition at 40 mg/kg,ip administrated for 21 consecutive days; type: functional; conditions: read-out: TGI

Q: What does the source list for `COc1ccc2c(c1)C(=N\OC(=O)CCn1cc(COc3ccc(N(C(=O)CCl)C(C(=O)NCCc4ccccc4)c4cccs4)cc3Cl)nn1)/C(=C1/C(=O)Nc3ccccc31)N2` (centres undefined)?
A: inhibition [1]: 14.1%; inhibition [2]: 22%; IC50 (MDA-MB-231 [3]): 4.65 µM; IC50 (HCT-116): 6.97 µM; IC50 (A549): 7.04 µM; IC50 (HepG2): 8.36 µM

Q: What does the source list for `O=C(CCn1cc(COc2ccc(N(C(=O)CCl)C(C(=O)NCCc3ccccc3)c3cccs3)cc2Cl)nn1)NCCCO/N=C1/C(=C2/C(=O)Nc3ccc(Cl)cc32)Nc2ccccc21` (centres undefined)?
A: inhibition [1]: 28.1%; inhibition [2]: 39.4%; IC50 (MDA-MB-231 [3]): 5.65 µM; IC50 (HCT-116): 4.25 µM; IC50 (A549): 2.67 µM; IC50 (HepG2): 4.83 µM

Q: Which inhibition [1] does the source give for `O=C(CCn1cc(COc2ccc(N(C(=O)CCl)C(C(=O)NCCc3ccccc3)c3cccs3)cc2Cl)nn1)O/N=C1/C(=C2/C(=O)Nc3ccccc32)Nc2cc(Br)c(Br)cc21` (centres undefined) here?
A: 1.46%

Q: And the inhibition [2]?
A: 9.29%

Q: What about the IC50 (MDA-MB-231 [3]) of the same molecule?
A: > 10 µM

Q: What about the IC50 (HCT-116) of the same molecule?
A: > 10 µM

Q: What about the IC50 (A549) of the same molecule?
A: > 10 µM

Q: What about the IC50 (HepG2) of the same molecule?
A: > 10 µM

Q: With `O=C(CCn1cc(COc2ccc(N(C(=O)CCl)C(C(=O)NCCc3ccccc3)c3cccs3)cc2Cl)nn1)O/N=C1/C(=C2/C(=O)Nc3ccccc32)Nc2cc(Br)ccc21` (centres undefined) as the molecule, how does the inhibition [1] read?
A: 5.41%

Q: What about the inhibition [2] of the same molecule?
A: 14.7%

Q: What about the IC50 (MDA-MB-231 [3]) of the same molecule?
A: > 10 µM

Q: What about the IC50 (HCT-116) of the same molecule?
A: > 10 µM

Q: What about the IC50 (A549) of the same molecule?
A: > 10 µM

Q: What about the IC50 (HepG2) of the same molecule?
A: > 10 µM

Q: Which half-life [4] does the source give for `COc1ccc(N(C(=O)CCl)C(C(=O)NCCc2ccccc2)c2cccs2)cc1Cl` (centres undefined) here?
A: 36 s

Q: What about the CLint scaled [5] of the same molecule?
A: 2680 mL/min/kg

Q: What about the half-life [6] of the same molecule?
A: 1.7 h

Q: What about the Tmax [7] of the same molecule?
A: 0.8 h

Q: And the Cmax [8]?
A: 8530 ng/mL

Q: What about the AUC(0-t) at 24 h [9] of the same molecule?
A: 8020 ng·h/mL

Q: And the MRT last at 24 h [10]?
A: 1.8 h

Q: And the clearance [11]?
A: 20.8 mL/min/kg

Q: And the inhibition in vivo at 40 mg/kg (MDA-MB-231 [12])?
A: 60.9%

Q: What about the IC50 (MDA-MB-231 [3]) of the same molecule?
A: 2.27 µM

Q: What about the IC50 (HCT-116) of the same molecule?
A: 4.14 µM

Q: What about the IC50 (A549) of the same molecule?
A: 2.09 µM

Q: And the IC50 (HepG2)?
A: 3.71 µM

Q: Which inhibition [1] does the source give for `COc1ccc2c(c1)NC(=C1\C(=O)Nc3ccccc31)/C2=N/OC(=O)CCn1cc(COc2ccc(N(C(=O)CCl)C(C(=O)NCCc3ccccc3)c3cccs3)cc2Cl)nn1` (centres undefined) here?
A: 12.6%

Q: And the inhibition [2]?
A: 47%

Q: And the IC50 (MDA-MB-231 [3])?
A: 3.88 µM

Q: And the IC50 (HCT-116)?
A: 4.03 µM

Q: What about the IC50 (A549) of the same molecule?
A: 4.6 µM

Q: And the IC50 (HepG2)?
A: 7.88 µM

Q: Which inhibition [1] does the source give for `O=C(CCn1cc(COc2ccc(N(C(=O)CCl)C(C(=O)NCCc3ccccc3)c3cccs3)cc2Cl)nn1)NCCCO/N=C1/C(=C2/C(=O)Nc3cc(Br)ccc32)Nc2ccccc21` (centres undefined) here?
A: 22.4%

Q: What about the inhibition [2] of the same molecule?
A: 28.3%

Q: And the IC50 (MDA-MB-231 [3])?
A: 8.69 µM

Q: What about the IC50 (HCT-116) of the same molecule?
A: > 10 µM

Q: And the IC50 (A549)?
A: > 10 µM

Q: And the IC50 (HepG2)?
A: > 10 µM

Q: Which results are given for `O=C(CCn1cc(COc2ccc(N(C(=O)CCl)C(C(=O)NCCc3ccccc3)c3cccs3)cc2Cl)nn1)NCCCO/N=C1/C(=C2/C(=O)Nc3cc(Cl)ccc32)Nc2ccccc21` (centres undefined)?
A: inhibition [1]: 31%; inhibition [2]: 38.5%; IC50 (MDA-MB-231 [3]): 7.46 µM; IC50 (HCT-116): 7.17 µM; IC50 (A549): 9.09 µM; IC50 (HepG2): 9 µM

Q: Which inhibition [1] does the source give for `O=C(CCn1cc(COc2ccc(N(C(=O)CCl)C(C(=O)NCCc3ccccc3)c3cccs3)cc2Cl)nn1)O/N=C1/C(=C2/C(=O)Nc3ccccc32)Nc2ccc(Cl)cc21` (centres undefined) here?
A: 13.5%

Q: What about the inhibition [2] of the same molecule?
A: 40.4%

Q: And the IC50 (MDA-MB-231 [3])?
A: 5.25 µM

Q: And the IC50 (HCT-116)?
A: 4.44 µM

Q: And the IC50 (A549)?
A: 5.15 µM

Q: And the IC50 (HepG2)?
A: 7.16 µM

Q: Which inhibition [1] does the source give for `O=C(CCn1cc(COc2ccc(N(C(=O)CCl)C(C(=O)NCCc3ccccc3)c3cccs3)cc2Cl)nn1)NCCCO/N=C1/C(=C2/C(=O)Nc3ccc(Br)cc32)Nc2ccccc21` (centres undefined) here?
A: 15.5%

Q: What about the inhibition [2] of the same molecule?
A: 21.3%

Q: What about the IC50 (MDA-MB-231 [3]) of the same molecule?
A: > 10 µM

Q: What about the IC50 (HCT-116) of the same molecule?
A: 8.77 µM

Q: What about the IC50 (A549) of the same molecule?
A: > 10 µM

Q: And the IC50 (HepG2)?
A: > 10 µM

Q: For `COc1ccc2c(c1)/C(=C1/Nc3ccccc3/C1=N\OCCCNC(=O)CCn1cc(COc3ccc(N(C(=O)CCl)C(C(=O)NCCc4ccccc4)c4cccs4)cc3Cl)nn1)C(=O)N2` (centres undefined), which inhibition [1] is on record?
A: 26.6%

Q: And the inhibition [2]?
A: 40%

Q: What about the IC50 (MDA-MB-231 [3]) of the same molecule?
A: 2.01 µM

Q: What about the IC50 (HCT-116) of the same molecule?
A: 1.96 µM

Q: What about the IC50 (A549) of the same molecule?
A: 4.09 µM

Q: What about the IC50 (HepG2) of the same molecule?
A: 4.66 µM

Q: Which inhibition [1] does the source give for `O=C(CCn1cc(COc2ccc(N(C(=O)CCl)C(C(=O)NCCc3ccccc3)c3cccs3)cc2Cl)nn1)NCCCO/N=C1/C(=C2/C(=O)Nc3cc(F)ccc32)Nc2ccccc21` (centres undefined) here?
A: 28.9%

Q: What about the inhibition [2] of the same molecule?
A: 36.8%

Q: And the IC50 (MDA-MB-231 [3])?
A: 3.96 µM

Q: What about the IC50 (HCT-116) of the same molecule?
A: 2.91 µM

Q: And the IC50 (A549)?
A: 6.6 µM

Q: What about the IC50 (HepG2) of the same molecule?
A: 4.12 µM
